In PubChem BioAssay AID220 (DTP/NCI, 2004) one finds T/C data, which are given here for ten compounds.

The test system of the test is CD8F1 mice, subcutaneous mammary adenocarcinoma, T/C%. Briefly: NCI In Vivo Anticancer Drug Screen. Data for tumor model Mammary Adenocarcinoma CD8F1 (subcutaneous) in CD8F1. The following applies: higher = larger tumour. The gist of the method: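 Tumor-bearing mice, transplantable model; readout survival or tumor size; value = treated (T) / vehicle control (C).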
[1] abbreviates: endpoint: median tumor weight (est.), dose: 12.5 mg/kg/injection, schedule: Q07DX005 (ip), vehicle: saline.
Where [2] appears, read: endpoint: median tumor weight (est.), dose: 25.0 mg/kg/injection, schedule: Q07DX005 (ip), vehicle: saline.
The mark [3] stands for this setting: endpoint: median tumor weight (est.), dose: 50.0 mg/kg/injection, schedule: Q07DX005 (ip), vehicle: saline.
Setting [4] is: endpoint: median tumor weight (est.), dose: 100.0 mg/kg/injection, schedule: Q07DX005 (ip), vehicle: saline.
Where [5] appears, read: endpoint: median tumor weight (est.), dose: 200.0 mg/kg/injection, schedule: Q07DX005 (ip), vehicle: saline.
The mark [6] stands for this setting: endpoint: median tumor weight (est.), dose: 400.0 mg/kg/injection, schedule: Q07DX005 (ip), vehicle: saline.

Each structure is given as a SMILES string. Values joined by “and” are separate entries in the source; they are usually repeats but may differ in a detail not shown here. Equal values may be shown once. Inconclusive results are not listed.

Turning to `CC[C@]1(O)C[C@H]2CN(CCc3c([nH]c4ccccc34)[C@@](C(=O)OC)(c3cc4c(cc3OC)N(C=O)[C@H]3[C@@](O)(C(=O)OC)[C@H](OC(C)=O)[C@]5(CC)C=CCN6CC[C@]43[C@@H]65)C2)C1`, the T/C reads like this: (endpoint: mean tumor weight, dose: 0.07 mg/kg/injection, schedule: Q01DX009 (ip), vehicle: saline) 180 % of control; (endpoint: mean tumor weight, dose: 0.15 mg/kg/injection, schedule: Q01DX009 (ip), vehicle: saline) 123 % of control; (endpoint: mean tumor weight, dose: 0.3 mg/kg/injection, schedule: Q01DX009 (ip), vehicle: saline) 54 % of control; (endpoint: mean tumor weight, dose: 0.5 mg/kg/injection, schedule: Q07DX006 (ip), vehicle: saline) 49 % of control; (endpoint: mean tumor weight, dose: 1.0 mg/kg/injection, schedule: Q07DX006 (ip), vehicle: saline) 71 % of control; (endpoint: mean tumor weight, dose: 2.0 mg/kg/injection, schedule: Q07DX006 (ip), vehicle: saline) 12 % of control. Besides, the T/C was 56 % of control (endpoint: median tumor weight (est.), dose: 0.13 mg/kg/injection, schedule: Q01DX005 (ip), vehicle: saline); 73 % of control (endpoint: median tumor weight (est.), dose: 0.19 mg/kg/injection, schedule: Q01DX005 (ip), vehicle: saline); 64 % of control and 73 % of control and 84 % of control (endpoint: median tumor weight (est.), dose: 0.25 mg/kg/injection, schedule: Q07DX005 (ip), vehicle: saline); 105 % of control (endpoint: median tumor weight (est.), dose: 0.28 mg/kg/injection, schedule: Q01DX005 (ip), vehicle: saline); 39 % of control and 43 % of control and 45 % of control (endpoint: median tumor weight (est.), dose: 0.5 mg/kg/injection, schedule: Q07DX005 (ip), vehicle: saline); 29 % of control (endpoint: median tumor weight (est.), dose: 0.95 mg/kg/injection, schedule: Q07DX005 (ip), vehicle: saline). For the same compound, the T/C is 6 % of control (endpoint: median tumor weight (est.), dose: 1.0 mg/kg/injection, schedule: Q07DX005 (ip), vehicle: saline); 6 % of control (endpoint: median tumor weight (est.), dose: 1.4 mg/kg/injection, schedule: Q04DX005 (ip), vehicle: saline); 8 % of control (endpoint: median tumor weight (est.), dose: 1.4 mg/kg/injection, schedule: Q07DX005 (ip), vehicle: saline); 1 % of control (endpoint: median tumor weight (est.), dose: 2.0 mg/kg/injection, schedule: Q07DX005 (ip), vehicle: saline).
Consider `F[B-](F)(F)F`, for which the T/C (endpoint: median tumor weight (est.), dose: 12.5 mg/kg/injection, schedule: Q07DX005 (ip), vehicle: gum acacia) is 109 % of control; the T/C (endpoint: median tumor weight (est.), dose: 25.0 mg/kg/injection, schedule: Q07DX005 (ip), vehicle: gum acacia) was 88 % of control; the T/C (endpoint: median tumor weight (est.), dose: 50.0 mg/kg/injection, schedule: Q07DX005 (ip), vehicle: gum acacia) is 83 % of control; the T/C (endpoint: median tumor weight (est.), dose: 100.0 mg/kg/injection, schedule: Q07DX005 (ip), vehicle: gum acacia) was 96 % of control; the T/C (endpoint: median tumor weight (est.), dose: 200.0 mg/kg/injection, schedule: Q07DX005 (ip), vehicle: gum acacia) is 74 % of control; the T/C (endpoint: median tumor weight (est.), dose: 400.0 mg/kg/injection, schedule: Q07DX005 (ip), vehicle: gum acacia) is 90 % of control.
As for `NC(=S)c1ncn(C2OC(CO)C(O)C2O)c1N` (configuration not stated), the T/C by setting is: under setting [1], 31 % of control; under setting [2], 48 % of control; (endpoint: median tumor weight (est.), dose: 25.0 mg/kg/injection, schedule: Q07DX005 (ip), vehicle: suspension in saline) 192 % of control; under setting [3], 39 % of control; (endpoint: median tumor weight (est.), dose: 50.0 mg/kg/injection, schedule: Q07DX005 (ip), vehicle: suspension in saline) 49 % of control; under setting [4], 31 % of control. Further, the T/C was 45 % of control (endpoint: median tumor weight (est.), dose: 100.0 mg/kg/injection, schedule: Q07DX005 (ip), vehicle: suspension in saline); 12 % of control under setting [5]; 95 % of control (endpoint: median tumor weight (est.), dose: 200.0 mg/kg/injection, schedule: Q07DX005 (ip), vehicle: suspension in saline); 10 % of control under setting [6]; 121 % of control (endpoint: median tumor weight (est.), dose: 400.0 mg/kg/injection, schedule: Q07DX005 (ip), vehicle: suspension in saline).
In the case of `O=c1[nH]c(=O)n(C2CC(O)C(CO)O2)cc1F` (configuration not stated), the T/C by setting is: (endpoint: mean tumor weight, dose: 25.0 mg/kg/injection, schedule: Q01DX009 (ip), vehicle: saline) 50 % of control; (endpoint: mean tumor weight, dose: 50.0 mg/kg/injection, schedule: Q01DX009 (ip), vehicle: saline) 20 % of control; (endpoint: mean tumor weight, dose: 100.0 mg/kg/injection, schedule: Q01DX009 (ip), vehicle: saline) 30 % of control; (endpoint: mean tumor weight, dose: 125.0 mg/kg/injection, schedule: Q07DX005 (ip), vehicle: saline) 585 % of control; (endpoint: mean tumor weight, dose: 125.0 mg/kg/injection, schedule: Q07DX006 (ip), vehicle: saline) 49 % of control; (endpoint: mean tumor weight, dose: 250.0 mg/kg/injection, schedule: Q07DX005 (ip), vehicle: saline) 180 % of control. In addition, the T/C (endpoint: mean tumor weight, dose: 250.0 mg/kg/injection, schedule: Q07DX006 (ip), vehicle: saline) is 6 % of control; the T/C (endpoint: mean tumor weight, dose: 500.0 mg/kg/injection, schedule: Q07DX005 (ip), vehicle: saline) is 473 % of control; the T/C under setting [1] was 97 % of control; the T/C under setting [2] is 116 % of control; the T/C under setting [3] was 72 % of control and 81 % of control; the T/C under setting [4] is 62 % of control and 78 % of control. For the same compound, the T/C is, setting by setting: under setting [5], 27 % of control and 46 % of control; under setting [6], 5 % of control and 11 % of control.
Take `CCCCCCCCCCC(OC(C)=O)C1CCC(C2CCC(C(O)CCCCCCCCCCCCC3C=C(C)OC3=O)O2)O1` (configuration not stated): the T/C reads like this: (endpoint: median tumor weight change, dose: 1.25 mg/kg/injection, schedule: Q01DX001 (ip), vehicle: water) 111 % of control; (endpoint: median tumor weight change, dose: 10.0 mg/kg/injection, schedule: Q01DX001 (ip), vehicle: other) 76 % of control; (endpoint: median tumor weight change, dose: 10.0 mg/kg/injection, schedule: Q01DX001 (ip), vehicle: water) 164 % of control; (endpoint: median tumor weight change, dose: 20.0 mg/kg/injection, schedule: Q01DX001 (ip), vehicle: other) 41 % of control; (endpoint: median tumor weight change, dose: 40.0 mg/kg/injection, schedule: Q01DX001 (ip), vehicle: other) 38 % of control; (endpoint: median tumor weight change, dose: 80.0 mg/kg/injection, schedule: Q01DX001 (ip), vehicle: other) 38 % of control.
In the case of `Cc1nn(CCO)c(C)c1N=[N+]([O-])c1c(C)nn(CCO)c1C`, the T/C reads like this: (endpoint: median tumor weight (est.), dose: 6.25 mg/kg/injection, schedule: Q07DX005 (ip), vehicle: Klucel (hydroxypropylcellulose) (HPC)) 57 % of control; (endpoint: median tumor weight (est.), dose: 12.5 mg/kg/injection, schedule: Q07DX005 (ip), vehicle: Klucel (hydroxypropylcellulose) (HPC)) 63 % of control; (endpoint: median tumor weight (est.), dose: 25.0 mg/kg/injection, schedule: Q07DX005 (ip), vehicle: Klucel (hydroxypropylcellulose) (HPC)) 91 % of control; (endpoint: median tumor weight (est.), dose: 50.0 mg/kg/injection, schedule: Q07DX005 (ip), vehicle: Klucel (hydroxypropylcellulose) (HPC)) 104 % of control; (endpoint: median tumor weight (est.), dose: 100.0 mg/kg/injection, schedule: Q07DX005 (ip), vehicle: Klucel (hydroxypropylcellulose) (HPC)) 43 % of control.
For `CC(=O)Oc1ccccc1O`, the T/C reads like this: (endpoint: median tumor weight change, dose: 62.5 mg/kg/injection, schedule: Q01DX001 (ip), vehicle: saline + Tween-80 + alcohol) 50 % of control; (endpoint: median tumor weight change, dose: 125.0 mg/kg/injection, schedule: Q01DX001 (ip), vehicle: saline + Tween-80 + alcohol) 57 % of control; (endpoint: median tumor weight change, dose: 250.0 mg/kg/injection, schedule: Q01DX001 (ip), vehicle: saline + Tween-80 + alcohol) 58 % of control.
On to `CONc1ccn(C2OC(CO)C(O)C2O)c(=O)n1` (configuration not stated), for which the T/C is 87 % of control (endpoint: median tumor weight change, dose: 125.0 mg/kg/injection, schedule: Q01DX001 (ip), vehicle: saline) and 103 % of control (endpoint: median tumor weight change, dose: 250.0 mg/kg/injection, schedule: Q01DX001 (ip), vehicle: saline).
On to `O=C(O)CP(=O)(O)O`, for which the T/C reads like this: under setting [4], 90 % of control; under setting [5], 97 % of control; under setting [6], 57 % of control; (endpoint: median tumor weight (est.), dose: 800.0 mg/kg/injection, schedule: Q07DX005 (ip), vehicle: saline) 79 % of control.
For the compound `CCC(/C=C/C1OC(=O)C=CC1C)=C\C(C)C/C=C/C(C)=C/C(C)C(=O)C(C)C(O)C(C)C/C(C)=C/C(=O)O` (configuration not stated), the T/C by setting is: (endpoint: median tumor weight change, dose: 200.0 mg/kg/injection, schedule: Q01DX001 (ip), vehicle: saline + alcohol) 56 % of control; (endpoint: median tumor weight change, dose: 400.0 mg/kg/injection, schedule: Q01DX001 (ip), vehicle: saline + alcohol) 49 % of control; (endpoint: median tumor weight change, dose: 800.0 mg/kg/injection, schedule: Q01DX001 (ip), vehicle: saline + alcohol) 56 % of control; (endpoint: median tumor weight change, dose: 1600.0 mg/kg/injection, schedule: Q01DX001 (ip), vehicle: saline + alcohol) 75 % of control; (endpoint: median tumor weight change, dose: 3200.0 mg/kg/injection, schedule: Q01DX001 (ip), vehicle: saline + alcohol) 61 % of control.
